Assay results published in US7420056B2, “Substituted bicyclic imidazo-3-ylamine compounds” (Gruenenthal GmbH, priority 2004, dated 2008).
Counter-ions that a name gives are not always drawn.

These molecules were tested against mGluR5 receptor (Sus scrofa, UniProt I3LUI7) (assay: Affinity for the mGluR5 receptor: inhibition of 3[H]-MPEP binding in pig brain homogenate). Settings: 10 μM compound, 5 nM 3[H]-MPEP, read-out: mGluR5 receptor inhibition of ^3[H]-MPEP binding [10 μM] in % at a concentration of the example compounds of 10 μM.
Description: 1. Method for Determining Affinity for the mGluR5 Receptor
Pig brain homogenate is produced by homogenisation (Polytron Pt 3000, Kinematica AG, 10,000 revolutions per minute for 90 seconds) of pig brain hemispheres without medulla, cerebellum and pons in a buffer of pH 8.0 (30 mM Hepes, Sigma, order number H3375+1 tablet Complete Roche Diagnostics, order number 1836145 made up to 100 ml) in a ratio of 1:20 (brain weight/volume) and differential centrifugation at 900×g and 40,000×g. 450 μg of protein from brain homogenate is incubated in each case in 250 μl incubation batches in 96-well microtitre plates with 5 nM 3[H]-MPEP (Tocris, order number R1212) (MPEP=2-methyl-6-[…]) and the compounds to be investigated (10 μM in the test) in the buffer (as above) at room temperature for 60 minutes.
The batches are then filtered with the assistance of a Brandel Cell Harvester (Brandel, Grade Robotic 9600) on Unifilter plates with glass filter mats (Perkin Elmer, order number 6005177) and then washed 3 times with buffer (as above) using 250 μl per sample. The filter plates are then dried for 60 minutes at 55° C. Then 30 μl of Ultima Gold™ scintillating material (Packard BioScience, order number 6013159) is added per well and after 3 hours the samples are measured using the β counter (Microbeta, Perkin Elmer). Nonspecific binding is determined by the addition of 10 μM MPEP (Tocris, order number 1212).

Sequence of mGluR5 receptor (I3LUI7 19-1212): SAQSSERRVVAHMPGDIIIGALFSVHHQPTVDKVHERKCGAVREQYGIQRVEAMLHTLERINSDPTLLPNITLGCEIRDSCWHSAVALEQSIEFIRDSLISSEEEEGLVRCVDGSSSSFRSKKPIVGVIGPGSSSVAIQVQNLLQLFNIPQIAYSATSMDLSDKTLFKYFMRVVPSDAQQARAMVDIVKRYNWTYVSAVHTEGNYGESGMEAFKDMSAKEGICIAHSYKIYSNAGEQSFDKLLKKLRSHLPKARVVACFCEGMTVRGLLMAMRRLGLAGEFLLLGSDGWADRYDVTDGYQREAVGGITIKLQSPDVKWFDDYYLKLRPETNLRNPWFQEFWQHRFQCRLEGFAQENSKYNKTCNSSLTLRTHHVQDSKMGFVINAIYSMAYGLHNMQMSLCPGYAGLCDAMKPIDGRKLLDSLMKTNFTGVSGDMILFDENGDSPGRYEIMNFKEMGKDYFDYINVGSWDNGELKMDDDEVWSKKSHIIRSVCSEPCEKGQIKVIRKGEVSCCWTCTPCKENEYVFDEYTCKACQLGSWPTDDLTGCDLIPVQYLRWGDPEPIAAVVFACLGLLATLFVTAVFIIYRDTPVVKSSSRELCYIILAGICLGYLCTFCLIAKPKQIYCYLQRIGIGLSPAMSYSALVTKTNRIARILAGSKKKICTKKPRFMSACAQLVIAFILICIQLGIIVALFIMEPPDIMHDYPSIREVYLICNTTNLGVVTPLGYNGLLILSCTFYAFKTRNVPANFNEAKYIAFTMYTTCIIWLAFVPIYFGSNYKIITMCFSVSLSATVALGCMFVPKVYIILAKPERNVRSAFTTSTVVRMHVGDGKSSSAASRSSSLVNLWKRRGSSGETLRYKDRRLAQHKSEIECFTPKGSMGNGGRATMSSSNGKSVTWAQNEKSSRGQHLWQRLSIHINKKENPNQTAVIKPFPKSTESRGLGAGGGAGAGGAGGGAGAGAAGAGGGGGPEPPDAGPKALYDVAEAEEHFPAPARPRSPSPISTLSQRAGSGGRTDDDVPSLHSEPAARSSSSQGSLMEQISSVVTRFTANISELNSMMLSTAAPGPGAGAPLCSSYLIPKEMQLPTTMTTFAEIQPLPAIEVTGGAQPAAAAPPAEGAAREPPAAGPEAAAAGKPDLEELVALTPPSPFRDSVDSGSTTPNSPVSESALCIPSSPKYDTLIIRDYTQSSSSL

| inhibition at 10 µM [%] | SMILES |
| --- | --- |
| 35 | C(#Cc1ccc(-c2nc3cnccn3c2N(Cc2cccnc2)Cc2cccnc2)s1)c1ccccc1 [Example 79, [2-(5-phenylethynyl-thiophen-2-yl)-imidazo[1,2-a]pyrazin-3-yl]-bis-pyridin-3-ylmethyl-amine] |
| 35 | Nc1c(-c2ccc(C#Cc3ccccc3)s2)nc2cnccn12 [Example 83, 2-(5-phenylethynyl-thiophen-2-yl)-imidazo[1,2-a]pyrazin-3-ylamine] |
| 35 | C(#Cc1ccc(-c2nc3cnccn3c2NC2CCCCC2)s1)c1ccccc1 [Example 87, N-cyclohexyl-2-(5-(phenylethynyl)thiophen-2-yl)imidazo[1,2-a]pyrazin-3-amine] |
| 82 | Cc1cc(Br)c2nc(-c3ccc(C#Cc4ccccn4)s3)c(NC3CCCC3)n2c1 [Example 92, 8-bromo-N-cyclopentyl-6-methyl-2-(5-(pyridin-2-ylethynyl)thiophen-2-yl)imidazo[1,2-a]pyridin-3-amine] |
| 79 | Cc1cc(Br)c2nc(-c3cccc(C#Cc4ccccn4)c3)c(NC(C)(C)C)n2c1 [Example 96, 8-bromo-N-tert-butyl-6-methyl-2-(3-(pyridin-2-ylethynyl)phenyl)imidazo[1,2-a]pyridin-3-amine] |
| 66 | CC(C)(C)CC(C)(C)Nc1c(-c2cccc(C#Cc3ccccn3)c2)nc2c(Cl)cc(C(F)(F)F)cn12 [Example 103, 8-chloro-2-(3-(pyridin-2-ylethynyl)phenyl)-6-(trifluoromethyl)-N-(2,4,4-trimethylpentan-2-yl)imidazo[1,2-a]pyridin-3-amine] |

Same assay, conditions: 3[H]-MPEP binding

| SMILES | IC50 [nM] |
| --- | --- |
| CCNc1c(-c2ccc(C#Cc3ccccc3)s2)nc2cnccn12 [Example 68, ethyl-[2-(5-phenylethynyl-thiophen-2-yl)-imidazo[1,2-a]pyrazin-3-yl]-amine] | 2320 |
| CCCNc1c(-c2ccc(C#Cc3ccccc3)s2)nc2cnccn12 [Example 69, propyl-[2-(5-phenylethynyl-thiophen-2-yl)-imidazo[1,2-a]pyrazin-3-yl]-amine] | 2930 |
| CCCCNc1c(-c2ccc(C#Cc3ccccc3)s2)nc2cnccn12 [Example 70, butyl-[2-(5-phenylethynyl-thiophen-2-yl)-imidazo[1,2-a]pyrazin-3-yl]-amine] | 1060 |
| CC(C)CNc1c(-c2ccc(C#Cc3ccccc3)s2)nc2cnccn12 [Example 71, (2-methylpropyl)-[2-(5-phenylethynyl-thiophen-2-yl)-imidazo[1,2-a]pyrazin-3-yl]-amine] | 1270 |
| CCCCCNc1c(-c2ccc(C#Cc3ccccc3)s2)nc2cnccn12 [Example 72, pentyl-[2-(5-phenylethynyl-thiophen-2-yl)-imidazo[1,2-a]pyrazin-3-yl]-amine] | 5340 |
| COC(=O)CN(CC(=O)OC)c1c(-c2ccc(C#Cc3ccccc3)s2)nc2cnccn12 [Example 73, {(methoxycarbonylmethyl)-[2-(5-phenylethynyl-thiophen-2-yl)-imidazo[1,2-a]pyrazin-3-yl]-amino}-acetic acid methyl ester] | 2210 |
| C(#Cc1ccc(-c2nc3cnccn3c2NCc2ccccc2)s1)c1ccccc1 [Example 74, benzyl-[2-(5-phenylethynyl-thiophen-2-yl)-imidazo[1,2-a]pyrazin-3-yl]-amine] | 1100 |
| COC(=O)CNc1c(-c2ccc(C#Cc3ccccc3)s2)nc2cnccn12 [Example 75, [2-(5-phenylethynyl-thiophen-2-yl)-imidazo[1,2-a]pyrazin-3-ylamino]-acetic acid methyl ester] | 1290 |
| CC(C)(C)Nc1c(-c2ccc(C#Cc3ccncc3)s2)nc2cnccn12 [Example 76, tert-butyl-[2-(5-pyridin-4-ylethynyl-thiophen-2-yl)-imidazo[1,2-a]pyrazin-3-yl]-amine] | 3.7 |
| CC(C)(C)Nc1c(-c2ccc(C#Cc3ccccn3)s2)nc2cnccn12 [Example 77, tert-butyl-[2-(5-pyridin-2-ylethynyl-thiophen-2-yl)-imidazo[1,2-a]pyrazin-3-yl]-amine] | 5.7 |
| CC(C)(C)Nc1c(-c2ccc(C#Cc3cccnc3)s2)nc2cnccn12 [Example 82, tert-butyl-[2-(5-pyridin-3-ylethynyl-thiophen-2-yl)-imidazo[1,2-a]pyrazin-3-yl]-amine] | 200 |
| COC(=O)c1nccn2c(NC(C)(C)CC(C)(C)C)c(-c3ccc(C#Cc4ccccc4)s3)nc12 [Example 84, methyl-2-(5-(phenylethynyl)thiophen-2-yl)-3-(2,4,4-trimethylpentan-2-ylamino)imidazo[1,2-a]pyrazine-8-carboxylate] | 1320 |
| CC(C)(C)CC(C)(C)Nc1c(-c2ccc(C#Cc3ccccc3)s2)nc2ncccn12 [Example 85, 2-(5-(phenylethynyl)thiophen-2-yl)-N-(2,4,4-trimethylpentan-2-yl)imidazo[1,2-a]pyrimidin-3-amine] | 2010 |
| Cc1cccc(C#Cc2ccc(-c3nc4cnccn4c3NC(C)(C)CC(C)(C)C)s2)n1 [Example 86, 2-(5-((6-methylpyridin-2-yl)ethynyl)thiophen-2-yl)-N-(2,4,4-trimethylpentan-2-yl)imidazo[1,2-a]pyrazin-3-amine] | 320 |
| C(#Cc1ccc(-c2nc3cnccn3c2N2CCCCC2)s1)c1ccccc1 [Example 88, 2-(5-(phenylethynyl)thiophen-2-yl)-3-(piperidin-1-yl)imidazo[1,2-a]pyrazine] | 1400 |
| CN(c1c(-c2ccc(C#Cc3ccccc3)s2)nc2cnccn12)C(C)(C)C [Example 89, N-tert-butyl-N-methyl-2-(5-(phenylethynyl)thiophen-2-yl)imidazo[1,2-a]pyrazin-3-amine] | 45 |
| CCN(CC)c1c(-c2ccc(C#Cc3ccccc3)s2)nc2cnccn12 [Example 93, N,N-diethyl-2-(5-(phenylethynyl)thiophen-2-yl)imidazo[1,2-a]pyrazin-3-amine] | 250 |
| CC(C)(C)Nc1c(-c2ccc(C#Cc3ccccc3)o2)nc2cnccn12 [Example 95, N-tert-butyl-2-(5-(phenylethynyl)furan-2-yl)imidazo[1,2-a]pyrazin-3-amine] | 1740 |
| Cc1cccn2c(NC(C)(C)C)c(-c3ccc(C#Cc4ccccc4)s3)nc12 [Example 97, N-tert-butyl-8-methyl-2-(5-(phenylethynyl)thiophen-2-yl)imidazo[1,2-a]pyridin-3-amine] | 590 |
| CN(c1c(-c2ccc(C#Cc3ccccc3)s2)nc2cnccn12)C(C)(C)CC(C)(C)C [Example 98, N-methyl-2-(5-(phenylethynyl)thiophen-2-yl)-N-(2,4,4-trimethylpentan-2-yl)imidazo[1,2-a]pyrazin-3-amine hydrochloride] | 250 |

Other lines, results leading:

| IC50 [nM] | SMILES |
| --- | --- |
| 540 | C(#Cc1ccc(-c2nc3cnccn3c2N2CCCC2)s1)c1ccccc1 [Example 99, 2-(5-(phenylethynyl)thiophen-2-yl)-3-(pyrrolidin-1-yl)imidazo[1,2-a]pyrazine hydrochloride] |
| 340 | CC(C)(C)Nc1c(-c2ccc(C#Cc3ccc(F)cc3)s2)nc2cnccn12 [Example 100, N-tert-butyl-2-(5-((4-fluorophenyl)ethynyl)thiophen-2-yl)imidazo[1,2-a]pyrazin-3-amine hydrochloride] |
| 2470 | Cc1ccn2c(NC(C)(C)C)c(-c3ccc(C#Cc4ccccc4)s3)nc2c1 [Example 101, N-tert-butyl-7-methyl-2-(5-(phenylethynyl)thiophen-2-yl)imidazo[1,2-a]pyridin-3-amine] |
| 8850 | Cc1cccc2nc(-c3ccc(C#Cc4ccccc4)s3)c(NC(C)(C)C)n12 [Example 102, N-tert-butyl-5-methyl-2-(5-(phenylethynyl)thiophen-2-yl)imidazo[1,2-a]pyridin-3-amine] |
| 92 | CC(C)(C)Nc1c(-c2ccc(C#Cc3cccc(F)c3)s2)nc2cnccn12 [Example 104, N-tert-butyl-2-(5-((3-fluorophenyl)ethynyl)thiophen-2-yl)imidazo[1,2-a]pyrazin-3-amine hydrochloride] |
| 150 | CC(C)(C)Nc1c(-c2ccc(C#Cc3ccccc3F)s2)nc2cnccn12 [Example 105, N-tert-butyl-2-(5-((2-fluorophenyl)ethynyl)thiophen-2-yl)imidazo[1,2-a]pyrazin-3-amine hydrochloride] |
| 210 | COC(=O)c1nccn2c(NC(C)(C)C)c(-c3ccc(C#Cc4ccccc4)s3)nc12 [Example 106, methyl-3-(tert-butylamino)-2-(5-(phenylethynyl)thiophen-2-yl)imidazo[1,2-a]pyrazine-8-carboxylate] |
| 52 | CC(C)(C)Nc1c(-c2ccc(C#Cc3cnccn3)s2)nc2cnccn12 [Example 107, N-tert-butyl-2-(5-(pyrazin-2-ylethynyl)thiophen-2-yl)imidazo[1,2-a]pyrazin-3-amine] |
| 1240 | CC(C)(C)Nc1c(-c2ccc(C#Cc3ccc(N)cc3)s2)nc2cnccn12 [Example 108, 2-(5-((4-aminophenyl)ethynyl)thiophen-2-yl)-N-tert-butylimidazo[1,2-a]pyrazin-3-amine] |
| 300 | CC(C)Nc1c(-c2ccc(C#Cc3ccccc3)s2)nc2cnccn12 [Example 109, N-isopropyl-2-(5-(phenylethynyl)thiophen-2-yl)imidazo[1,2-a]pyrazin-3-amine] |
